This passage reports inhibition results from ChEMBL document CHEMBL5665443, “Enzyme Inhibitor Single Concentration assay results for EUbOPEN Chemogenomics Library” (2024).

For orientation: inhibition means the drop in the measured response relative to a control, in per cent.

The target of assay [1] is Methyl-CpG-binding domain protein 4 (Homo sapiens) (UniProt O95243). The conditions noted are these: Compound Concentration 10.0 uM, Hit No.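 Note: MBD4 activity read as fluorescence at 594 nm from cleavage and release of a quenched duplex DNA oligonucleotide, with APE1 coupled to incise the strand and raise turnover.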
Methyl-CpG-binding domain protein 4 (Homo sapiens), sequence (O95243 whole entry, the tested form may be a part): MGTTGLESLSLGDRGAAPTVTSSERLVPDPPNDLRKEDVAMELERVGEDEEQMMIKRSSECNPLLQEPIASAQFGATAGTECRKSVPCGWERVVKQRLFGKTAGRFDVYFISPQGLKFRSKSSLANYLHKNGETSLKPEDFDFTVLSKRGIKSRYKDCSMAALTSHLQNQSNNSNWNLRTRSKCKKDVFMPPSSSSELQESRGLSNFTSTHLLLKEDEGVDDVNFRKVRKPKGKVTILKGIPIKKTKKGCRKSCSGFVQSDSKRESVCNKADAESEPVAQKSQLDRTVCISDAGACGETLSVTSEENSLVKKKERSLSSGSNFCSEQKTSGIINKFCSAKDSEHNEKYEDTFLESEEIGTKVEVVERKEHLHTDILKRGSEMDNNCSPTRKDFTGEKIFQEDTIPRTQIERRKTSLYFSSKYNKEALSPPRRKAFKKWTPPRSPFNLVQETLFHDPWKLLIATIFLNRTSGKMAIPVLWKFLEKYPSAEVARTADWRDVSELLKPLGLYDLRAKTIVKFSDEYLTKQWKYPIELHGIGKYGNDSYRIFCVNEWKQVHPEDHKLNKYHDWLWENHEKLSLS
Description: Inhibition of MBD4 by quantifying inhibition of MBD4-mediated cleavage and dissociation of quenched duplex DNA oligonucleotides, measured as fluorescence at 594 nm. To generate a functional strand incision and increase turn-over this assay is coupled to APE1.
In assay [2] the target is DNA-3-methyladenine glycosylase (Homo sapiens) (UniProt P29372). The conditions noted are these: Compound Concentration 10.0 uM, Hit No.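 Note: enzyme assay where MPG cuts a quenched duplex DNA oligonucleotide probe, paired with APE1 for strand incision and turnover, read as fluorescence at 594 nm.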
DNA-3-methyladenine glycosylase (Homo sapiens), sequence (P29372 whole entry): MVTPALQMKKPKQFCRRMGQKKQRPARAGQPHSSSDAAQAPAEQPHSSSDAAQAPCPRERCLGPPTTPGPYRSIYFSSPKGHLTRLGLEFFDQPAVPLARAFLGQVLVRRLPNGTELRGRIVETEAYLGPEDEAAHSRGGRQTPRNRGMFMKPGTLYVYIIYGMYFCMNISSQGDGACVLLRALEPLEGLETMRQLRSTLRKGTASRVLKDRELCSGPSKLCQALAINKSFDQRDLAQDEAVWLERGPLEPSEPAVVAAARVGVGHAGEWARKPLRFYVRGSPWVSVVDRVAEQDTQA
Description: Inhibition of MPG by quantifying inhibition of MPG-mediated cleavage and dissociation of quenched duplex DNA oligonucleotides, measured as fluorescence at 594 nm. To generate a functional strand incision and increase turn-over this assay is coupled to APE1.
Assay [3] has as its target T1, Adenine DNA glycosylase (Homo sapiens) (UniProt Q9UIF7).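 Note: human MUTYH activity read as 594 nm fluorescence from cleavage and release of a quenched DNA duplex, coupled with APE1 for strand incision, lower signal meaning inhibition.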
T1 sequence (whole entry): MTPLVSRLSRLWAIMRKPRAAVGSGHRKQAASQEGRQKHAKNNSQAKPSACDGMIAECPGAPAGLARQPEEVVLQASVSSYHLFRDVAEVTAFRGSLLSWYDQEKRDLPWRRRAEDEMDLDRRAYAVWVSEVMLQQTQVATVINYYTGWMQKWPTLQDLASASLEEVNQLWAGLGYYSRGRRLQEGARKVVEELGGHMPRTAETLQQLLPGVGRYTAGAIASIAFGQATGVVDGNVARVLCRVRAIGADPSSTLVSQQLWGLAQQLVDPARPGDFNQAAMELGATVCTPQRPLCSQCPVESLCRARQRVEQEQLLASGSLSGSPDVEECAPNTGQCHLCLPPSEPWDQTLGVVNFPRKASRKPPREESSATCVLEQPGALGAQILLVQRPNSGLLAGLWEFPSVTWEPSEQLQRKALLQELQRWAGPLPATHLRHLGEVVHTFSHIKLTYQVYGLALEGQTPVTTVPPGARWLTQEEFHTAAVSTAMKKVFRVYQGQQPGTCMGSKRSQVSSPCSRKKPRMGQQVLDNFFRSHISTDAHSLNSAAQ
The conditions noted are these: Compound Concentration 10.0 uM, Hit No.
Description: Inhibition of MUTYH by quantifying inhibition of MUTYH-mediated cleavage and dissociation of quenched duplex DNA oligonucleotides, measured as fluorescence at 594 nm. To generate a functional strand incision and increase turn-over this assay is coupled to APE1.

The target of assay [4] is Endonuclease 8-like 1 (Homo sapiens) (UniProt Q96FI4). The conditions noted are these: Compound Concentration 10.0 uM, Hit No.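 Note: fluorescence at 594 nm from quenched duplex DNA oligonucleotides released by NEIL1 cleavage and strand separation, reported as reduction of this enzyme activity.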
Endonuclease 8-like 1 (Homo sapiens), sequence (Q96FI4 whole entry): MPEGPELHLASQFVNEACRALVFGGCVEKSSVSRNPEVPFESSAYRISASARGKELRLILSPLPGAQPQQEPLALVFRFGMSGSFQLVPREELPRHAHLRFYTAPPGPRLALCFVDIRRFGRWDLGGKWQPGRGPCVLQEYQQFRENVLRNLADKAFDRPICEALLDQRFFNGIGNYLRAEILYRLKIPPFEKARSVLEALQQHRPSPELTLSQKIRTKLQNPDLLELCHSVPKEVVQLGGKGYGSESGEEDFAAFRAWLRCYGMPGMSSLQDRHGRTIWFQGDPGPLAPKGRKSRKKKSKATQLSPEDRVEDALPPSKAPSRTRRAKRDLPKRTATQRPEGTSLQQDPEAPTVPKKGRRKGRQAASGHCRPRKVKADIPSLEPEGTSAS
Description: Inhibition of NEIL1 by quantifying inhibition of NEIL1-mediated cleavage and dissociation of quenched duplex DNA oligonucleotides, measured as fluorescence at 594 nm.
Assay [5] addresses T2, Endonuclease 8-like 2 (Homo sapiens) (UniProt Q969S2).
T2 sequence (whole entry): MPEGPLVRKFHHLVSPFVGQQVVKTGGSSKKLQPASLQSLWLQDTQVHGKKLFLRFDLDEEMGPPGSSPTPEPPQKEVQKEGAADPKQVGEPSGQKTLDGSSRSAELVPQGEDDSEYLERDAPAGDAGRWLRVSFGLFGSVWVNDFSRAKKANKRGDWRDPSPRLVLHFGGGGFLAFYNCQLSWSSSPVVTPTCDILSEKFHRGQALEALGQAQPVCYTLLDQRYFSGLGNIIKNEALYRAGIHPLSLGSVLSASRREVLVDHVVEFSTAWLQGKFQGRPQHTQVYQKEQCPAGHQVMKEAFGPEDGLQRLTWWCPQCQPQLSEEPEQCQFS
The conditions noted are these: Compound Concentration 10.0 uM, Hit No.
Description: Inhibition of NEIL2 by quantifying inhibition of NEIL2-mediated cleavage and dissociation of quenched duplex DNA oligonucleotides, measured as fluorescence at 594 nm.

The target in assay [6] is T3, Endonuclease III-like protein 1 (Homo sapiens) (UniProt P78549).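 Note: enzyme assay tracking NTHL1 cutting and release of a quenched double-stranded DNA oligo substrate, read as fluorescence at 594 nm.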
T3 sequence (whole entry): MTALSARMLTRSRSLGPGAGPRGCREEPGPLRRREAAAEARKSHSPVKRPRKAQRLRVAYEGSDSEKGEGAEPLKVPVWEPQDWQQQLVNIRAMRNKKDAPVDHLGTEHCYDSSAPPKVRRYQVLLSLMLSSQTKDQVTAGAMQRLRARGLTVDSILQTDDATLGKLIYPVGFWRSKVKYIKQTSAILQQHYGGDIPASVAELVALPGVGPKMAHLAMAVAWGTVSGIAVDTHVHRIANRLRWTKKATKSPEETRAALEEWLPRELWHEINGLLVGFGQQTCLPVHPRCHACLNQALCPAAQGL
The conditions noted are these: Compound Concentration 10.0 uM, Hit No.
Description: Inhibition of NTHL1 by quantifying inhibition of NTHL1-mediated cleavage and dissociation of quenched duplex DNA oligonucleotides, measured as fluorescence at 594 nm.

In assay [7] the target is N-glycosylase/DNA lyase (Homo sapiens) (UniProt O15527). The conditions noted are these: Compound Concentration 10.0 uM, Hit No.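 Note: OGG1 cleavage of a quenched duplex DNA oligonucleotide, coupled to APE1 for strand incision, read as fluorescence at 594 nm.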
N-glycosylase/DNA lyase (Homo sapiens), sequence (O15527 whole entry): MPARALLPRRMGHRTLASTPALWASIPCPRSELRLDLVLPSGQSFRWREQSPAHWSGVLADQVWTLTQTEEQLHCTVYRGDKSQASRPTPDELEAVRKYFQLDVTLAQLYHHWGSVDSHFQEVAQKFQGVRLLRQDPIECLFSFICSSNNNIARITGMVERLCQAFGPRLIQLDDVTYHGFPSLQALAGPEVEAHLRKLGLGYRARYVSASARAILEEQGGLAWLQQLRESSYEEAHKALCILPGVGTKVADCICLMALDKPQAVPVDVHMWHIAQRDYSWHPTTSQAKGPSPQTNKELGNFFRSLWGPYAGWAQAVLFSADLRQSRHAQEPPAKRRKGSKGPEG
Description: Inhibition of OGG1 by quantifying inhibition of OGG1-mediated cleavage and dissociation of quenched duplex DNA oligonucleotides, measured as fluorescence at 594 nm. To generate a functional strand incision and increase turn-over this assay is coupled to APE1.
The target of assay [8] is T4, Single-strand selective monofunctional uracil DNA glycosylase (Homo sapiens) (UniProt Q53HV7).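 Note: enzymatic SMUG1 assay coupled with APE1, reading fluorescence at 594 nm released when a quenched double-stranded DNA oligonucleotide substrate is cleaved and separated.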
T4 sequence (whole entry): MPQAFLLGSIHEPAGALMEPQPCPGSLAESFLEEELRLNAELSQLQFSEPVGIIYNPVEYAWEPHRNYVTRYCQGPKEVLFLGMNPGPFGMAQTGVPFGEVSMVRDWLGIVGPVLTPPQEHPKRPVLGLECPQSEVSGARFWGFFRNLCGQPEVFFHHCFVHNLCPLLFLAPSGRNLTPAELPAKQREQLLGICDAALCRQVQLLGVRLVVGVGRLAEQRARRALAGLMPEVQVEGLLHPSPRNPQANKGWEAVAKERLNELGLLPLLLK
The conditions noted are these: Compound Concentration 10.0 uM, Hit No.
Description: Inhibition of SMUG1 by quantifying inhibition of SMUG1-mediated cleavage and dissociation of quenched duplex DNA oligonucleotides, measured as fluorescence at 594 nm. To generate a functional strand incision and increase turn-over this assay is coupled to APE1.

Assay [9] concerns the target G/T mismatch-specific thymine DNA glycosylase (Homo sapiens) (UniProt Q13569). The conditions noted are these: Compound Concentration 10.0 uM.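 Note: human TDG cleavage of quenched duplex DNA oligonucleotides coupled to APE1, strand release read as fluorescence at 594 nm, inhibition of TDG activity.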
Description: Inhibition of TDG by quantifying inhibition of TDG-mediated cleavage and dissociation of quenched duplex DNA oligonucleotides, measured as fluorescence at 594 nm. To generate a functional strand incision and increase turn-over this assay is coupled to APE1.
Assay [10] deals with Uracil-DNA glycosylase (Homo sapiens) (UniProt P13051). The conditions noted are these: Compound Concentration 10.0 uM, Hit No.
Uracil-DNA glycosylase (Homo sapiens), sequence (P13051 whole entry): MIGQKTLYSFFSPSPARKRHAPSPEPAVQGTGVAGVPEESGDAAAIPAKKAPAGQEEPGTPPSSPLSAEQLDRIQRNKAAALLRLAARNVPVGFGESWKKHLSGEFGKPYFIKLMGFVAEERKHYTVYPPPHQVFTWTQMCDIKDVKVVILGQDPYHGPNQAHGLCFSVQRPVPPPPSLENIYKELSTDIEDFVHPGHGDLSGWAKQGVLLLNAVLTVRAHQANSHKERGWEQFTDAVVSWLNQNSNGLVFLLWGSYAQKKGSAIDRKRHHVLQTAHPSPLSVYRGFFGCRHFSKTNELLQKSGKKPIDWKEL
Description: Inhibition of UNG by quantifying inhibition of UNG-mediated cleavage and dissociation of quenched duplex DNA oligonucleotides, measured as fluorescence at 594 nm. To generate a functional strand incision and increase turn-over this assay is coupled to APE1.

Molecules are shown by their SMILES. Several values for one entry are separate records, joined by “and”; a condition that tells them apart may be missing. Identical values can stand only once.

G/T mismatch-specific thymine DNA glycosylase (Homo sapiens), sequence (Q13569 whole entry): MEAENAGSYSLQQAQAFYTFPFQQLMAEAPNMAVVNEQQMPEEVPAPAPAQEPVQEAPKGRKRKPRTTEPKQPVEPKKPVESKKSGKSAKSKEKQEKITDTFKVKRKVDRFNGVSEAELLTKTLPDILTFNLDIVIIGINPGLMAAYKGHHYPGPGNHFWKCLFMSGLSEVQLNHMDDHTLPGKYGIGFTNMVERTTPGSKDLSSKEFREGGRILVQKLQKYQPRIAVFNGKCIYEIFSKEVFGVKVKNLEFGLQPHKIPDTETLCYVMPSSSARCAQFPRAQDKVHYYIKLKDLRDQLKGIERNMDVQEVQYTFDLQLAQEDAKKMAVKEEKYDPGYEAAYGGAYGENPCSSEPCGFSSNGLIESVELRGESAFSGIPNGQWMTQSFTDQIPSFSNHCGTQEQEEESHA

As for `c1ccc2nc(N3CCNCC3)ccc2c1`, the inhibition in assay [1] is -0.572%; in assay [2], -3.87%; in [3], 11.1%; in assay [4] it was 8.31%; in [5], 7.8%; in [6], 13.8%. The inhibition in [7] is -7.23%; in assay [8], 2.02%; in assay [9] (Hit No), 12.3%; in [10] it was 1.1%.

With `CCCCCCCCc1ccc(CC[C@](N)(CO)COP(=O)(O)O)cc1`, the inhibition is -2.75% in [1]; 7.62% in [2]; 6.04% in assay [3]; 9.14% in [4]; 6.75% in [5]; -3.94% in assay [6]. The inhibition was 0.481% in assay [7], 0.742% in assay [8], 7.26% in assay [9] (Hit No) and -7.46% in assay [10].

In the case of `CCc1nnc(NS(=O)(=O)c2ccc(NC(=S)NC(=O)/C=C/c3ccc(F)cc3)cc2)s1`, the inhibition in [1] is 48%; in assay [2], 31.8%; in assay [3], 54.8%; in assay [4], -4.5%; in assay [5], 9.5%; in assay [6] it was 23.2%. Moreover, the inhibition in [7] was 12.1%; in assay [8] it was 24.8%; in assay [9] (Hit No) it was 49.8%; in assay [10], 3.3%.

With `C[C@@H](CN1CCC(Cc2ccccc2)CC1)[C@@H](O)c1ccc(O)cc1`, the inhibition was -0.918% in assay [1]; -5.23% in assay [2]; -7.47% in assay [3]; 3.42% in assay [4]; 2.2% in assay [5]; 12.9% in [6]. For the same compound, the inhibition in assay [7] was -8.67%; in [8], 4.28%; in [9] (Hit No), -7.39%; in assay [10], -6.48%.

For the compound `CCCCCN1C(=O)C2(COc3cc4c(cc32)OCO4)c2ccccc21` (stereo not given), the inhibition turned out to be 29% in assay [1]; 32.6% in assay [2]; 13.2% in assay [3]; 0.00926% in assay [4]; 0.924% in assay [5]; 18.7% in [6]. The inhibition in assay [7] is 1.71%; in assay [8], -6.34%; in assay [9] (Hit No), 18.1%; in assay [10], -5.87%.

Consider `CC(C)c1cc(Br)c(NC(=O)Nc2cccnc2)c(Br)c1`, for which the inhibition in [1] was 12.5%; in assay [2], 14.7%; in assay [3] it was 0.0238%; in [4] it was 3.27%; in assay [5], 7.55%; in assay [6], -2.73%. Moreover, the inhibition in assay [7] is -2.73%; in assay [8], -3.86%; in assay [9] (Hit No), 19.7%; in assay [10] it was -2.82%.

For the compound `CS(=O)(=O)c1cccc(NC(=O)N(Cc2ccc(C(=O)Nc3nnn[nH]3)cc2)c2ccc(C3CCCCC3)cc2)c1`, the inhibition was determined as 45.7% in assay [1]; 26.7% in assay [2]; 44.3% in assay [3]; 1.57% in assay [4]; 14.7% in [5]; 7.79% in assay [6]. For the same compound, the inhibition in [7] is 18.7%; in [8], 6.31%; in [9] (Hit No) it was 36.1%; in [10], -4.34%.

For `O=C(c1cc(C2CC2)on1)N(C1CCCCC1)C1CCCCC1`, the inhibition is 8.05% in assay [1]; 42.7% in [2]; 24.8% in [3]; 0.306% in [4]; -3.92% in assay [5]; 10.5% in [6]. The inhibition was 0.0968% in [7], -5.04% in [8], 14.9% in [9] (Hit No) and -1.05% in [10].

Consider `COc1cc(Nc2ccnc3ccc(Br)cc23)cc(OC)c1OC`, for which the inhibition in assay [1] stood at 11.8%; in assay [2], 34.4%; in assay [3], 35%; in assay [4] it was 10%; in assay [5] it was 1.58%; in assay [6] it was 0.785%. Besides, the inhibition amounted to 14.7% in assay [7], 26.8% in assay [8], 50.8% in assay [9] (Hit No) and 12.8% in [10].

`COc1cc(OC)cc(C(=O)NNC(=O)Nc2cccc3ccccc23)c1`: the inhibition in assay [1] is -8.62%; in assay [2] it was 3.65%; in [3], 2.2%; in assay [4], -1.69%; in [5], 5.26%; in assay [6], 2.66%. Moreover, the inhibition is 3.09% in [7], 3.6% in assay [8], 11.6% in assay [9] (Hit No) and -7.99% in assay [10].

As for `Cc1cc(Cn2cnc3c2C[C@@H](C(=O)O)N(C(=O)C(c2ccccc2)c2ccccc2)C3)ccc1N(C)C`, the inhibition in assay [1] was 46%; in assay [2], 19.4%; in assay [3] it was 20.9%; in assay [4] it was 10.3%; in assay [5] it was -0.733%; in assay [6] it was -6.87%. Also, the inhibition in assay [7] was 5.17%; in assay [8], 7.18%; in assay [9] (Hit No) it was 25.8%; in assay [10], -2.82%.

As for `CN[C@@H]1CCc2[nH]c3ccc(C(N)=O)cc3c2C1`, the inhibition was 14.9% in assay [1]; -3.1% in assay [2]; -4.97% in assay [3]; 8.84% in assay [4]; -0.483% in assay [5]; -9.8% in [6]. The inhibition was 3.36% in assay [7], -7.16% in assay [8], 16.1% in assay [9] (Hit No) and -5.51% in assay [10].

`C[C@H](N)COC(=O)[C@@H](CCCCN)NC(=O)Cc1c(-c2ccc3ccccc3c2)[nH]c2c1ccc1ccccc12`: the inhibition is 95.3% and 102% in assay [1]; 58.5% and 61.8% in [2]; 122% and 125% in [3]; 2.76% and 13.3% in assay [4]; 14.7% and 12.7% in [5]; 5.59% in [6]. Further, the inhibition in assay [7] is -2.94% and 9.96%; in assay [8] it was 4.71%; in [9] (Hit Yes), 88.5% and 91%; in assay [10], 4.7% and 1.53%.

Turning to `Cc1ccc2c(c1CCC(=O)O)CC[C@@H](NS(=O)(=O)c1ccc(Cl)cc1)C2`, the inhibition in [1] came out at 16.2%; in [2] it was 11.8%; in assay [3], 33.4%; in assay [4] it was 5.13%; in assay [5] it was 1.01%; in assay [6], 15.1%. Besides, the inhibition in assay [7] was 10%; in [8], 4.86%; in assay [9] (Hit No), 18%; in [10], -7.64%.

As to `N#Cc1ccc(NC(=O)Nc2ccccc2Br)c2nn[nH]c12`, the inhibition in [1] was 21%; in assay [2], -2.94%; in assay [3], 35.7%; in assay [4] it was 0.686%; in [5] it was 1.51%; in [6] it was 9.25%. Also, the inhibition in assay [7] is -1.34%; in assay [8] it was 7.57%; in [9] (Hit No), 26.3%; in assay [10], -8.36%.
